Measured values as given in patent US10047151B2, “Methods for the treatment of cancer and inflammatory diseases using cereblon as a predictor” (Celgene Corporation, priority 2011, dated 2018).

Legend:
CRBN = CRBN mRNA and protein expression after drug treatment (RT-PCR, Western blot); format: cell-based; conditions: H929 and U266B1 cells; pomalidomide 1 μM, lenalidomide 10 μM
OCI-Ly10 DLBCL cells = assay: OCI-Ly10 human tumor xenograft model; format: in vivo
Experimental: . A total of 10×10^6 OCI-Ly10 DLBCL cells in 100% Matrigel (Becton Dickinson, San Jose, Calif.) were injected subcutaneously into the right flank of mice. Mice were monitored 2 or 3 times a week for the appearance of tumors. Once the tumors reached an average size of 100-150 mg, 10 mice in each group were treated with either vehicle (0.5% carboxymethyl cellulose: 0.25% Tween 80 in deionized H2O) or indicated doses of lenalidomide (qd×28, p.o.) or the positive control vincristine (q4d×4, i.v.). Mice were monitored daily for health status as well as tumor growth. Tumors of all mice were measured with a digital caliper and volumes calculated with the following formula: tumor volume (mm^3)=length (mm)×width (mm)^2. Mice were killed when tumor size exceeded 1000 mm^3.
To confirm the relevance of lenalidomide-mediated inhibition of NF-κB/IRF4 signaling in vivo in ABC-DLBCL, a subcutaneous OCI-Ly10 xenograft model was established. […] Compared with vehicle control group, lenalidomide treatment for 7 days reduced IRF4 expression and BCL-10 cleavage by 15-35% (p<0.05).

pRb = pRb phosphorylation in H929 cells (Western blot); format: cell-based
DLBCL cells = assay: 3H-thymidine incorporation cell proliferation assay in DLBCL cell lines; format: cell-based; conditions: 0.01-100 μM, 5 days
Experimental: Cell proliferation was assessed using the ^3H-thymidine incorporation assay. Briefly, logarithmically growing DLBCL cells were cultured in 96-well culture plates in complete media with the indicated concentration of lenalidomide or DMSO control. Following incubation at 37° C. for 5 days, 1 μCi ^3H-thymidine (GE Healthcare Biosciences, Piscataway, N.J.) was added to each well for the final 5 hours of incubation. Cells were then harvested onto UniFilter GF/C filter plates (PerkinElmer, Waltham, Mass.) using a cell harvester (Tomtec, Hamden, Conn.) and the plates were allowed to dry overnight. The ^3H-thymidine incorporation of each well was then measured using a TopCount NXT Microplate Scintillation and Luminescence Counter (Packard BioScience, Meriden, Conn.). The percent inhibition of cell proliferation was calculated and normalized to DMSO control.
In order to define the place of lenalidomide for DLBCL therapy in specific patient populations and to understand the molecular mechanisms of efficacy, a panel of DLBCL cell lines was collected in this study. The DLBCL subtypes of the cell lines were confirmed based on literature information (Lenz G, et al., Proc Natl Acad Sci USA 2008; 105: 13520-5) and molecular analysis, including intracellular NF-κB activity or IRF4 expression, as well as gene expression profiling of key signature genes of activated B cells.

IRF4 [1] = assay: IRF4 protein expression in ABC-DLBCL cells (Western blot); format: cell-based
Experimental: Cells were treated with test compounds or 0.1% DMSO for indicated times. Following incubation, cells were collected, pelleted with centrifugation, and immediately lysed in 0.1 ml lysis buffer containing 10 mM Tris-HCl pH 8.0, 10 mM EDTA, 150 mM NaCl, 1% NP-40, 0.5% SDS, 1 mM DTT, 1 mM Na3VO4, plus Complete protease inhibitor cocktail (Roche Applied Science, Indianapolis, Ind.), then processed with a Qiashredder™ (Qiagen, Valencia, Calif.) for 1 minute and frozen on dry ice. Samples were diluted with 6×SDS sample buffer and then boiled for 5 min. Approximately 30 μl of this mixture was loaded per lane on a Criterion Precast 4-12% Tris-HCl gel (Bio-Rad, Hercules, Calif.), electrophoresed, and transferred to nitrocellulose membranes (Bio-Rad, Hercules, Calif.). The membranes were blocked for 1 hour at room temperature using blocking buffer (LI-COR Biosciences, Lincoln, Nebr.), then incubated overnight at 4° C. with antibodies against either BCL-10, IRF4, CRBN or β-actin. Membranes were washed and incubated with IRDye Secondary Antibodies (1:30,000) for 1 hour at room temperature. A standard protocol was then followed for signal detection, using the Odyssey® Infrared Imaging System and software (LI-COR Biosciences, Lincoln, Nebr.).
To understand the molecular mechanism of lenalidomide on ABC-DLBCL cells, the effects of lenalidomide on IRF4 expression in these cells were investigated. […] Lenalidomide-induced decrease of IRF4 expression occurred as early as 1 day of drug treatment, with similar kinetics to that of the inhibitors (zVRPR-fmk and LY-333,531, respectively) of MALT1 and PKCβ, two key enzymes involved in NF-κB activation upon BCR engagement in B cells.

U266B1 cells [2] = assay: Gene expression profile by microarray in U266B1 cells; format: cell-based; conditions: negative control siRNA-transfected U266B1 cells; pomalidomide 1 μM, lenalidomide 10 μM; ±1.7 fold, P<0.05
Experimental: Gene expression profile using microarray technology identified 759 or 609 genes differentially modulated in negative control siRNA-transfected U266B1 cells treated with pomalidomide (1 μM) or lenalidomide (10 μM) compared to DMSO treated control (±1.7 fold; P<0.05 ANOVA p-value) (FIGS. 5A & 5B).

U266B1 cells [3] = assay: Cell cycle progression (cells in S phase) in siRNA-transfected U266B1 cells; format: cell-based; conditions: control mock and negative control siRNA-transfected cells; average of 3 days of treatment; pomalidomide 1 μM, lenalidomide 10 μM
Experimental: Drugs such as lenalidomide and pomalidomide have direct anti-proliferative activity against MM cells by inducing cell cycle arrest in G1 phase, followed by a decrease in viability. To study the role of CRBN in lenalidomide and other drugs anti-proliferative activities, H929 and U266B1 cells, two sensitive myeloma lines, were transfected with CRBN-siRNAs or control siRNAs for 24, 48, 72 and 96 hours. Cells were treated 24 h after transfection with DMSO (0.1%), pomalidomide (1 μM) and lenalidomide (10 μM) for 1, 2, 3 days to evaluated the compound effect on CRBN protein, mRNA expression and the effect on cell cycle and proliferation. […] CRBN down regulation was confirmed by RT-PCR and Western blot using the CRBN70 antibody (FIG. 1).
Knockdown of CRBN markedly abrogated the lenalidomide and pomalidomide-induced delay in cell cycle progression in U266B1 cells. Id.

IRF4 [4] = assay: IRF4 protein level in H929 cells (Western blot); format: cell-based
Source text: In H929 cells, the cell cycle arrest in G1 phase by the drugs coincides with a reduction of tumor suppressor, pRb, phosphorylation and the oncogene and myeloma survival factor IRF4.

In the case of `Nc1cccc2c1CN(C1CCC(=O)NC1=O)C2=O` (stereo not drawn) [lenalidomide, 3-(4-amino-1-oxo-1,3-dihydro-isoindol-2-yl)-piperidine-2,6-dione], the “mRNA and protein expression of CRBN” value (CRBN) is reported as “affected neither mRNA nor protein expression of CRBN significantly”, the tumor size (OCI-Ly10 DLBCL cells; 3-30 mg/kg po, qdX28, p<0.01) is reported as “significantly decreased tumor size” and the “toxicity based upon mouse weight” value (OCI-Ly10 DLBCL cells; throughout study) is reported as “No pronounced toxicity”. The “reduction of IRF4 expression and BCL-10 cleavage compared with vehicle control group” value (OCI-Ly10 DLBCL cells; treatment for 7 days, p<0.05) was 15-35%, the “phosphorylation of pRB” value (pRb) was “decreased” and the proliferation of cells (DLBCL cells; ABC-DLBCL cell lines, except for OCI-Ly3) was “significantly inhibited”. For the same compound, the proliferation of cells (DLBCL cells; PBML and GCB-DLBCL cells) was “minimal effects”, the IRF4 levels (IRF4 [1]; OCI-Ly3 cells, 1-3 day treatments) was “neither lenalidomide nor the PKCβ inhibitor had any appreciable effect” and the IRF4 protein levels (IRF4 [1]; sensitive cell lines U2932 and OCI-Ly10, treatment for 1-3 days) was “significantly downregulate”. The “genes differentially modulated compared to DMSO treated control” value (U266B1 cells [2]) was 609 genes, the “delay of cell cycle progression, measured as the decrease of the number of cells in S phase” value (U266B1 cells [3]) was 40% and the “total level of protein IRF4” value (IRF4 [4]) was “decreased”.
